Data as given in publication PMC10154516, “Potential profound fluctuation in tacrolimus concentration on consumption of pomegranate rind extract: A Pharmacokinetic Experiment” (Frontiers in Pharmacology, 2023).

Tests used:
[1] = biological target: T1, CYP3A4 (Homo sapiens, UniProt P08684); experiment: CYP3A4 inhibitory in vitro assay (fluorometric inhibitor screening kit); assay type: biochemical; settings: for inhibition at 150 µM: Concentration 150 (unit inferred); for inhibition at 200 µM: Concentration 200 (unit inferred)
T1 construct: purchased BioVision Inc. K702-200
T1 sequence (P08684 whole entry): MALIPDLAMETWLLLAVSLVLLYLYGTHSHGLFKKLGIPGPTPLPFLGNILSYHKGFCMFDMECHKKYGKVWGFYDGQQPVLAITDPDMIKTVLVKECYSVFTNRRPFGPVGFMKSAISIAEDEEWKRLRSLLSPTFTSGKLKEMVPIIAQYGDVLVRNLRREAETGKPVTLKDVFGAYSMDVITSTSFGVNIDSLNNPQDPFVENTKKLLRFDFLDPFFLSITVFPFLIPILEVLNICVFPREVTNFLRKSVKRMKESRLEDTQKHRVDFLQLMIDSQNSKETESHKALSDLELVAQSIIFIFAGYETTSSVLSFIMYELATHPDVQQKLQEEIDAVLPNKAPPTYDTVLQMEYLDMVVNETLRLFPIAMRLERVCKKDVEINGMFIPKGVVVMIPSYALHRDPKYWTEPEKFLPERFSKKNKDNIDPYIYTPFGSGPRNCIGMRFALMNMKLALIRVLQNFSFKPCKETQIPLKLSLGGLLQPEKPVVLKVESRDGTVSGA
Description: Briefly, incubations were conducted in a reaction volume of 200 μl/well in a 96-well microliter plate. For the calibration curve, resorufin (standard) was plotted by taking different concentrations (0, 4, 8, 12, 16, 20, 30, and 40 µl) of the 1 pmol/μl of the standard available in the kit. One mole of resorufin corresponds to the metabolism of 1 mol of the CYP3A4 substrate. […] The corresponding percentage inhibition due to the test ligand or positive inhibition control was calculated. CYP3A4 activities observed with punicalagin at varying concentrations (50,100, 150, 200, 250, and 300 µM) were noted down ([Hidaka et al., 2005]; [Faria et al., 2007]). The concentration at which 50% of the CYP3A4 activity is inhibited (IC50) was noted down. The logarithm values were plotted onto the graphs. Each compound was tested in triplicates. Inhibition curves were plotted from the log values of the concentration of the samples vs. the percentage inhibition calculated.

[2] = Pharmacokinetics of TAC in Wistar rats with and without oral PRE (LC-MS/MS of plasma); assay type: in vivo
Description: The assessment of TAC in all the samples was done with the help of the LC-MS/MS method. Samples were prepared following the method stated by [Shokati et al. (2015)]. After the preparation of samples, the supernatant was then used further for investigation. An aliquot of 10 μL was injected into the LC-MS/MS system. The column used for analysis was Eclipse XDB C-18 with 100 mm × […] × 3.5 um) with a flow rate of 1.5 ml/min (LC flow split to MS as 0.45 ml/min). The mobile phase used was a mixture of solvent A (acetonitrile) and solvent B (ammonium acetate in water) including 0.1% formic acid in a ratio of 95:05 v/v with a run time of 2 min isocratic (Supplementary Table S2. The compounds were detected by tandem mass spectrometry using electrospray ionization in the positive mode and using ion transitions m/z 821.5 -> 768.0 for TAC (standard) and m/z 721.1 -> 296.1 for ritonavir (internal standard).
Extraction of the drug from the plasma was carried out by the precipitation method. An aliquot of drug-free plasma spiked with 50 μl of ZnSO4 solution and 300 μl of methanol/acetonitrile (50:50, v/v) including IS was added. The mixture was vortex mixed for 30 s and centrifuged at 14,000 g (2000 rpm) at […] for 5 min. The supernatant solution was separated and filtered through a 0.45-µ membrane filter and stored at −20°C until use for analysis. The aforementioned extraction procedure was followed for all plasma samples, calibration curve samples, and QC samples. The optimization of the extraction procedure was required to reduce variation in the area of IS and improve injection to injection reproducibility. The schematic flow chart for the extraction procedure is depicted in Figure 1.
TAC (3 mg/kg) was administered orally to experimental rats (N = 6), and in another group, PRE at a dosage of 200 mg/kg was orally co-administered with TAC dosage of 3 mg/kg in a similar manner to six rats. Both groups were given a volume of 10 ml/kg which was a single dose to all animals. Blood samples were drawn at regular intervals, and the blood plasma concentration of TAC was assessed with the help of the validated LC-MS/MS technique ([Sattler et al., 1992]; [Alanbaki et al., 2019]).
Pretreatment of PRE (200 mg/kg) for a period of six consecutive days was done in group 2, and afterward, on the 7th day, in group 2, PRE (200 mg/kg) was co-administered with TAC (3 mg/kg) to experimental animals (N = 6). In group 1, a single dose of TAC (3 mg/kg) was administered to the animals at a volume of 10 ml/kg body weight.
To study the dose–effect relationship, the Wistar rats were equally distributed into five groups (N = 6 rats/group). PRE at a dose of 100, 200, 400, and 800 mg/kg was given by oral route to the rats, co-administrated with TAC (3 mg/kg). The drug TAC at a dose of 3 mg/kg was given similarly to all the rats in another group, with a volume of 10 ml/kg body weight. Blood was collected from the retro-orbital plexus, and the plasma samples were separated.
The experimental animals were fasted for 12 h before the collection of blood. A total of 300 μL of blood were collected in Eppendorf tubes containing heparinized solution at different time intervals (0, 0.5, 1.0, 2.0, 4.0, 8.0, 12, and 24 h). Plasma was separated and approximately 100 μl of samples was pipetted in the tubes (Figure 2). A total of 300 μl of methanol/acetonitrile (50:50, v/v) and 50 μl of ZnSO4 solution were added, and the solution was vortexed for 30 s and centrifuged at 14,000 g (2000 rpm) for 10 min (Figure 2). All the samples were stored at −20°C until further analysis ([Anlamlert and Sermsappasuk, 2020]).
Pharmacokinetic parameters such as time to reach the maximum concentration (Tmax) and Cmax of TAC were read from the […] (observed blood concentration vs. time profile). AUC0-12 was calculated with the help of a linear trapezoidal rule (Drug and Statistics (DAS) software version 2.1.1). […]

[3] = human, probe kit CYP3A4 substrate metabolised to resorufin (not named), read-out: % Relative Inhibition

Row | SMILES | inhibition at 50 µM ([1]; human, probe kit CYP3A4 substrate metabolised to resorufin (not named), Concentration 50 (unit inferred), read-out: % Relative Inhibition) [%] | inhibition at 100 µM ([1]; human, probe kit CYP3A4 substrate metabolised to resorufin (not named), Concentration 100 (unit inferred), read-out: % Relative Inhibition) [%] | inhibition at 150 µM [1, 3] [%] | inhibition at 200 µM [1, 3] [%] | inhibition at 250 µM ([1]; human, probe kit CYP3A4 substrate metabolised to resorufin (not named), Concentration 250 (unit inferred), read-out: % Relative Inhibition) [%] | inhibition at 300 µM ([1]; human, probe kit CYP3A4 substrate metabolised to resorufin (not named), Concentration 300 (unit inferred), read-out: % Relative Inhibition) [%] | CYP3A4 inhibitory activity ([1]; varied concentrations) | Mean plasma concentration of TAC ([2]; TAC 3 mg/kg co-administered with PRE 800 mg/kg, multiple-dose study) | AUC0-12 of TAC ([2]; TAC 3 mg/kg co-administered with PRE 100, 200, 400, 800 mg/kg) | Average plasma concentration of TAC ([2]; TAC 3 mg/kg co-administered with PRE 100 to 400 mg/kg, multiple-dose study) | t1/2 of TAC ([2]; TAC 3 mg/kg co-administered with PRE varied doses) | AUC0-inf of TAC ([2]; TAC 3 mg/kg p.o. alone) [ngh/ml] | Cmax ([2]; Wistar, po, TAC 3 mg/kg p.o. alone, rat plasma) [ng/mL] | Tmax ([2]; Wistar, rat, plasma, po, TAC 3 mg/kg p.o. alone) [min] | half-life ([2]; Wistar, rat, plasma, po, TAC 3 mg/kg p.o. alone, read-out: t1/2 of TAC (converted)) [min]
1 | O=C1O[C@H]2[C@@H]3OC(=O)c4cc(O)c(O)c(O)c4-c4c(O)c(O)c5oc(=O)c6c(c(O)c(O)c7oc(=O)c4c5c76)-c4c(cc(O)c(O)c4O)C(=O)OC[C@H]3OC(O)[C@@H]2OC(=O)c2cc(O)c(O)c(O)c2-c2c1cc(O)c(O)c2O (mixture of isomers) [Punicalagin] | 89.1 | 76.2 | 64.5 | 52.5 | 35.2 | 11.4 | exhibits CYP3A4 inhibitory activity |  |  |  |  |  |  |  | 
2 | C=CC[C@@H]1/C=C(\C)C[C@H](C)C[C@H](OC)[C@H]2O[C@@](O)(C(=O)C(=O)N3CCCC[C@H]3C(=O)O[C@H](/C(C)=C/[C@@H]3CC[C@@H](O)[C@H](OC)C3)[C@H](C)[C@@H](O)CC1=O)[C@H](C)C[C@@H]2OC [TAC, Tacrolimus] |  |  |  |  |  |  |  | does not increase | increased with an increase in PRE doses | increases with an increase in PRE dose | prolonged | 61.91 ± 17.37 | 9.03 ± 1.21 | 54.6 ± 10.8 | 7.2 ± 2.4
3 | CC(=O)N1CCN(c2ccc(OCC3COC(Cn4ccnc4)(c4ccc(Cl)cc4Cl)O3)cc2)CC1 (centres unmarked) [Ketoconazole] |  |  | 72.5 | 55 |  |  |  |  |  |  |  |  |  |  | 
